One data set has as its system HeLa cells. The experiment in a line: Determination of the maximum nontoxic dose of the compound. Format: cell-based. The following applies: observed each 24 h for 3 days. The protocol:
The drug was dissolved in DMSO, diluted with cell maintenance medium by 20 times, then diluted stepwise by 2 times to form working solutions with different concentrations. HeLa cells were inoculated on 96-well plate in an amount of 10,000 (0.1 mL) per well, added with 0.1 mL maintenance medium, incubated at 37° C. in adherence manner, sucked to remove maintenance medium, replaced it with 0.2 mL of compound working solution, and maintenance medium was used as control. The growth of cell was observed each 24 h, for 3 days.

In data set [1] the test system is rhinovirus 3 (HRV-3). The data set is described as follows: Prophylactic administration, cell protection from CPE. Format: cell-based. The following applies: 100 ng/ml, TCID50 about 100, 3 days.
Data set [2] relates to rhinovirus 3 (HRV-3). The data set is described as follows: Therapeutic administration, cell protection from CPE. Format: cell-based.
The subject of data set [3] is rhinovirus 3 (HRV-3). The experiment in a line: Measurement of half effective concentration (therapy). The following applies: Enterovirus, HRV3, HeLa cells, TCID50 about 100, 48 h, prevents 50% cells from CPE. Format: cell-based.
Data set [4] concerns rhinovirus 3 (HRV-3). The data set is described as follows: Measurement of inhibition index of compound. Format: cell-based. To be noted: highest dilution times of viral inhibition/nontoxic limit dilution times. The protocol: The inhibition index of drug was calculated: inhibition index=highest dilution times of viral inhibition/nontoxic limit dilution times.
The subject of data set [5] is rhinovirus 3 (HRV-3). The experiment in a line: Maximum viral inhibition concentration. Format: cell-based. The following applies: compound concentration giving 100% inhibition of TCID50 about 100; virus added in doubling manner.
For a further data set, the system named is rhinovirus (HRV). The following applies: cited from earlier work.
The conditions of data set [6]: Bioorg Med Chem. 2009, 17: 621-624; cited from earlier work.

The structures appear in SMILES notation. ≈ marks a conversion by molar mass, not a printed value.

Here are results for 8 compounds from patent US9522891B2, “Pyridazine derivatives and use thereof as medicaments for treating microRNA viral infection” (INSTITUTE OF PHARMACOLOGY AND TOXICOLOGY ACADEMY OF …, priority 2010, dated 2016).

Take `CCOC(=O)c1ccc(OCCCN2CCN(c3ccc(Cl)nn3)CC2)cc1` [Example 6, 4-{3-[4-(6-chloropyridazin-3-yl)piperazin-1-yl]propoxy}benzoic acid ethyl ester]: the melting point was 125 to 127 °C.

For `CCOc1ccc(OCCN2CCN(c3cc(Cl)nnc3Cl)CC2)cc1` [Control 2, 3,6-dichloro-4-{4-[2-(4-ethoxylphenoxy)ethyl]piperazin-1-yl}pyridazine], in the data set on HeLa cells, the Maximum nontoxic dose was 31.3 µg/mL. Also, the “protection effects in preventing phagocytosis (CPE)” value in the data set on rhinovirus 3 (HRV-3) [1] was “good protection effects”. Further, the protection effects entry with rhinovirus 3 (HRV-3) [2] (therapeutic administration condition) is listed as “good protection effects”. In the data set on rhinovirus 3 (HRV-3) [2] (therapeutic administration, 100 ng/mL, TCID50 100, HeLa cells, 48 h), this compound had a Cell protection rate of 100%. Further, the response in the data set on rhinovirus 3 (HRV-3) [3] was half-maximal at 0.025 µg/mL (≈ 0.0629 µM) (EC50). The Inhibition index in the data set on rhinovirus 3 (HRV-3) [4] is recorded as 1/625. Moreover, the “Maximum inhibition virus titer” value with rhinovirus 3 (HRV-3) [5] is on record as “≦200 TCID50”. Besides, the index of selectivity entry in the data set with rhinovirus (HRV) (Bioorg Med Chem. 2009, 17: 621-624) is “relatively high index of selectivity”. Besides, the “inhibition activity to HRV” value in the data set on rhinovirus (HRV) (compared to Pirodavir, Bioorg Med Chem. 2009, 17: 621-624) was “activity comparable to Pirodavir”. The toxicity entry in [6] is “relatively low toxicity”.

With `CCOc1ccc(OCCCN2CCN(c3ccc(Cl)nn3)CC2)cc1` [Example 1, 3-{4-[3-(4-ethoxylphenoxy)propyl]piperazin-1-yl}-6-chloropyridazine], the melting point lay within 125 to 127 °C.

Compound `Cc1ccc(OCCCN2CCN(c3ccc(Cl)nn3)CC2)cc1` [Example 2, 3-{4-[3-(4-methylphenoxy)propyl]piperazin-1-yl}-6-chloropyridazine] yielded a melting point of 129 to 131 °C.

In turn, `COC(=O)c1ccc(OCCCN2CCN(c3ccc(Cl)nn3)CC2)cc1` [Example 5, 4-{3-[4-(6-chloropyridazin-3-yl)piperazin-1-yl]propoxy} benzoic acid methyl ester] gave a melting point of 128 to 130 °C.

In the case of `CC(C)c1ccc(OCCCN2CCN(c3ccc(Cl)nn3)CC2)cc1` [Example 4, 3-{4-[3-(4-isopropylphenoxy)propyl]piperazin-1-yl}-6-chloropyridazine], the melting point is 125 to 127 °C.

`CCc1ccc(OCCCN2CCN(c3ccc(Cl)nn3)CC2)cc1` [Example 3, 3-{4-[3-(4-ethylphenoxy)propyl]piperazin-1-yl}-6-chloropyridazine] showed a melting point of 123 to 125 °C.

`CCOC(=O)c1ccc(OCCC2CCN(c3ccc(C)nn3)CC2)cc1` [Pirodavir]: in the data set with rhinovirus (HRV) (in vivo and in vitro, literature), the “activity against rhinovirus (HRV)” value is listed as “significant activity”.

As a reminder, the melting point is the temperature of the solid-liquid transition. In general, EC50 refers to the concentration giving half of the maximal effect.
